The source of these data is patent publication US11124779B2, “Compositions and methods for treating and preventing pancreatitis, renal injury and cancer” (Yale University, priority 2014, dated 2021).

Data set [1] concerns HK-2 cells. The data set can be described thus: In vitro model of cisplatin toxicity: HK-2 cell survival by the WST-1 method. Type of data set: cell-based, human. As to the method: FIG. 1B is a graph depicting the effect of renalase peptides on survival of HK-2 cells exposed to 20 μM cisplatin for 24 hrs; cell survival is depicted as % change in survival compared to that in cisplatin-treated HK-2 cells without renalase peptides; cell survival was measured by the WST-1 method; RP-A220: mutated RP-220, and RP-19 and RP-128: control peptides; peptide concentration (μg/ml) indicated in top line; n=4, *=p<0.05. […]
HK-2 cells (human proximal tubular line) obtained from ATTC (Manassas, Va., USA) were cultured in DMEM/F12 supplemented with glutamine, 10% FBS and antibiotics, and were maintained at 37° C. in 5% CO2. Cells were exposed to cisplatin (20 μM) in the presence or absence of recombinant renalase or renalase peptides for 24 hrs, and cell viability was assessed by the WST1 method (Roche Applied Science, Germany).

For another data set, the system named is ERK. Briefly: MAPK signaling by immunoblot: ERK phosphorylation in HK-2 cells. Type of data set: cell-based, human. Particulars: cisplatin alone, 1-60 min. From the text:
(§1) FIGS. 2A-2C, depict how RP-220 alters the pattern of MAPK activation in cisplatin treated cells. FIG. 2A is an image of a gel depicting MAPK phosphorylation with cisplatin alone (CP) and with CP and RP-220; representative study: p-p38: phosphorylated p38 MAPK; p-ERK: phosphorylated ERK. FIG. 2B is a graph depicting quantification of ERK activation. Signals were normalized to glyceraldehyde 3-phosphate dehydrogenase (GAPDH) loading control; n=3, *=P<0.05. FIG. 2C is a graph depicting quantification of p38 activation, signals normalized to GAPDH loading control; n=3, *=P<0.05.
(§2) FIGS. 5A-5E, depict how PMCA4b inhibition abrogates renalase peptide mediated MAPK signaling and cytoprotection. […] is a series of panels depicting how PMCA4b inhibition abrogates RP-220 mediated ERK and p38 signaling in HK-2 cells; caloxin1b=peptide inhibitor of PMCA4; left panel: RP-220 mediated ERK and p38 activation, phospho=phosphorylated, representative blot; middle panel: inhibition of RP-220 mediated ERK and p38 activation by caloxin1b (100 μM); right panel: quantification of phosphorylated p38 (P-p38) and phosphorylated ERK (p-ERK); signals were normalized to glyceraldehyde 3-phosphate dehydrogenase (GAPDH) loading control; n=3, *=P<0.05. […]

Another data set has as its system p38 MAPK. Briefly: MAPK signaling by immunoblot: p38 phosphorylation in HK-2 cells. Type of data set: cell-based, human. The settings on record: cisplatin alone, 1-60 min.
Excerpt: as §1, §2

The test system of data set [2] is HK-2 cells. Briefly: In vitro model of cisplatin toxicity: HK-2 cell survival by the WST-1 method. Type of data set: cell-based, human. Particulars: control conditions, no cisplatin.
In data set [3] the test system is HK-2 cells. Particulars: Wang et al., 2014; cited from earlier work.
The next data set relates to MAPK signaling. Particulars: Wang et al., 2014; cited from earlier work.
Where [4] appears, read: 20 μM cisplatin, 24 hrs, WST-1, range of peptide concentrations.

Where a SMILES comes first, the peptide text is derived from it. Where no end group is shown, it is not given here.

Take “RP-128: control renalase peptide, SEQ ID NO: 2, FRHRVTQINLRDDKWEVSKQ, acetylated at the amino terminus (Ac-FRHRVTQINLRDDKWEVSKQ; listed as Homo sapiens)”: in the data set on HK-2 cells [1] (setting [4]), the “survival of HK-2 cells exposed to cisplatin (protective effect)” value (“survival of HK-2 cells exposed” for short) was “did not improve cell survival”.

In the case of `N.N.[Cl][Pt][Cl]` [Cisplatin, cisplatin], the ERK phosphorylation entry in the data set with ERK is given as “modestly increased”. Moreover, the p38 phosphorylation result in the data set on p38 MAPK is “modestly increased”.

On to `C[S+]([O-])c1ccc(-c2nc(-c3ccncc3)c(-c3ccc(F)cc3)[nH]2)cc1` (stereo not shown) [SB203580, 4-[4′-Fluorophenyl]-2-[4′-methylsulfinylphenyl]-5-[4′-pyridyl]-imidazole, reference compound], for which the “effect of kinase inhibitor on protection by RP-220 against cisplatin” value with HK-2 cells [1] (HK-2 cells, 20 μM cisplatin 24 hrs plus RP-220, SB203580 10 μM) is on record as “completely abrogated”. Besides, in the data set with HK-2 cells [2], the “survival of HK-2 cells with inhibitor alone” value was “did not adversely affect the survival”.

On to `CC[C@H](C)[C@H](NC(=O)[C@H](CCC(=O)O)NC(=O)[C@H](CO)NC(=O)[C@H](CO)NC(=O)[C@H](CCC(=O)O)NC(=O)[C@@H](NC(=O)[C@H](CC(N)=O)NC(=O)[C@H](CCCNC(=N)N)NC(=O)[C@H](CCCCN)NC(=O)[C@H](CCCCN)NC(=O)[C@H](CC(N)=O)NC(=O)[C@H](CC(=O)O)NC(=O)[C@@H](NC(=O)[C@H](CO)NC(=O)[C@@H](NC(=O)[C@H](Cc1ccccc1)NC(=O)[C@H](CCCNC(=N)N)NC(=O)[C@@H](NC(=O)[C@H](CS)NC(C)=O)[C@@H](C)CC)C(C)C)[C@@H](C)CC)[C@@H](C)CC)C(=O)NCC(=O)O` [RP-220] (Ac-CIRFVSIDNKKRNIESSEIG-OH), for which the “protective effect against cisplatin cytotoxicity after down-regulation of PMCA4b expression” value in the data set on HK-2 cells [1] (HK-2 cells, PMCA4b siRNA, 20 μM cisplatin 24 hrs, peptide 15 μg/ml) is “abrogated”. For the same molecule, in the data set with HK-2 cells [1] (dose response curve, 20 μM cisplatin, 24 hrs), the “relative potency at protecting HK-2 cells against cisplatin cytotoxicity (concentration dependent effects)” value is “equipotent”.

For “RP-19: control renalase peptide, SEQ ID NO: 1, LLRRQTSGPLYLAVWDKAED, acetylated at the amino terminus (Ac-LLRRQTSGPLYLAVWDKAED; listed as Homo sapiens)”, in the data set with HK-2 cells [1] (setting [4]), the “survival of HK-2 cells exposed” value is given as “did not improve cell survival”.

As to “RP-A220: mutated RP-220, SEQ ID NO: 6, IRFVSIDNAAANIESSEIG (listed as Homo sapiens)”, the “survival of HK-2 cells exposed” value is listed as “did not improve cell survival” with HK-2 cells [1] (setting [4]) and “exacerbated cisplatin toxicity” with HK-2 cells [1] (20 μM cisplatin, 24 hrs, test substance 80 μg/ml).

As for “RP-Scr220: scrambled RP-220 control peptide, SEQ ID NO: 7, CSKRIFKVISSIEDNNERG (listed as Homo sapiens)”, the protection of cells result with HK-2 cells [3] was “failed to protect cells”. Also, in the data set on MAPK signaling, the “activation of MAPK signaling” value is “did not activate MAPK signaling”.

“RP-224: renalase peptide, SEQ ID NO: 3, CVSIDNKKRNI, acetylated at the amino terminus (Ac-CVSIDNKKRNI; listed as Homo sapiens)”: the “survival of HK-2 cells exposed” value in the data set with HK-2 cells [1] (20 μM cisplatin, 24 hrs, test substance 100 μg/ml) was “protected HK-2 cells to a similar degree”.
